The results in this text go back to US6020370A, “Bridged cyclic amino acids as pharmaceutical agents” (Warner-Lambert Company, priority 1998, dated 2000).

The target in the assay is T1, α2 δ subunit of a calcium channel (Sus scrofa, UniProt A0A287BIN3).
T1 construct: derived from porcine brain tissue; from tissue; host or cells: porcine brain tissue
The assay is described as follows: Radioligand binding assay using [^3 H]gabapentin and the α2 δ subunit derived from porcine brain tissue. The note with it: Table 1, [^3 H]gabapentin.

T1 sequence (A0A287BIN3 entry or part of it): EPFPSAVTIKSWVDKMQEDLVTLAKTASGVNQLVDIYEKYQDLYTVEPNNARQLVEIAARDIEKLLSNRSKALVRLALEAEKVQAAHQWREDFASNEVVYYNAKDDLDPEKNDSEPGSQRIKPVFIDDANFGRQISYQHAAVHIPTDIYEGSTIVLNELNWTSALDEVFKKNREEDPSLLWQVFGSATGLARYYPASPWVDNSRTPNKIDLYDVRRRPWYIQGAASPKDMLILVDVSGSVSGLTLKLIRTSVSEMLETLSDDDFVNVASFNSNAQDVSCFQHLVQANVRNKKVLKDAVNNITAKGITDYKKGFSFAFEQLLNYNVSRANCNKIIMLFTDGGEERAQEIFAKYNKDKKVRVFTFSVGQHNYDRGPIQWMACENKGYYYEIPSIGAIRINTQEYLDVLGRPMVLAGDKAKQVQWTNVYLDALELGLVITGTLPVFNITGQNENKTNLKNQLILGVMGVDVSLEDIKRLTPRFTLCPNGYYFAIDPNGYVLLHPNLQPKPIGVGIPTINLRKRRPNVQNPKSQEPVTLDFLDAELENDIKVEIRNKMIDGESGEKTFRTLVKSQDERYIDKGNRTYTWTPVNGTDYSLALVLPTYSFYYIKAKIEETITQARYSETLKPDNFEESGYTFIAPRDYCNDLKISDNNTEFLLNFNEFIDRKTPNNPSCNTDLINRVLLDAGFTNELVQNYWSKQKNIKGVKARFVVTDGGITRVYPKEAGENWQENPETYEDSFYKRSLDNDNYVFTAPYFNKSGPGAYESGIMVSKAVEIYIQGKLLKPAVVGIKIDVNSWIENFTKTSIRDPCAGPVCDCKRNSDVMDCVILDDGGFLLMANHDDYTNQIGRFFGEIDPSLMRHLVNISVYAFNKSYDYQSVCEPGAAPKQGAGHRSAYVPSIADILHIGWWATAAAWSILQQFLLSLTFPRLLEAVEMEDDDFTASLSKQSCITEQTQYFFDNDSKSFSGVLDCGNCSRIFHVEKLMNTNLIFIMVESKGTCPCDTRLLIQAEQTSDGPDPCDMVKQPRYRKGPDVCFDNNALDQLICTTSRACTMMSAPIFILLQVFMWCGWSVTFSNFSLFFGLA

For the compound `NCC1(CC(=O)O)CC2CCC1C2` (racemic) [Compound 5], the IC50 was determined as 103 nM.
In the case of `NCC1(CC(=O)O)C2CCCC1CCC2` (centres unmarked) [Compound 3], the IC50 was found to be 47 nM.

For orientation: IC50 means the point on the concentration scale where inhibition reaches its midpoint.
